# From patent US11807835B2, “Detergent compositions containing a stabilized enzyme by phosphonates” (ECOLAB USA INC., priority 2016, dated 2023)
# Tested on: amylase
# Experiment: Amylase activity retention in detergent use solution (4000 ppm, 5 GPG water; ethylidene substrate EPS, HEPES buffer pH 8.0)
# Format: biochemical
# How it was run: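 Detergent use solution at 4000 ppm in 5 GPG water held at 120° F.; aliquots taken up to 4 h, flash-frozen, then assayed with p-nitrophenyl valerate in TRIS pH 8.0 (lipase) or EPS substrate in HEPES pH 8.0 (amylase). Retention given as % activity relative to t=0.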
smiles,measurement,setting,value
"O=P(O)(O)CN(CP(=O)(O)O)CP(=O)(O)O [ATMP, Aminotri (methylene phosphonic acid)]",Relative Amylase Enzyme Activity,"All Ash formula, phosphonate 0.3 wt-%, use solution at 120° F., time 0 min",98.49%
same,Relative Amylase Enzyme Activity,"All Ash formula, phosphonate 0.3 wt-%, use solution at 120° F., time 5 min",100.00%
same,Relative Amylase Enzyme Activity,"All Ash formula, phosphonate 0.3 wt-%, use solution at 120° F., time 10 min",98.40%
same,Relative Amylase Enzyme Activity,"All Ash formula, phosphonate 0.3 wt-%, use solution at 120° F., time 20 min",97.90%
same,Relative Amylase Enzyme Activity,"All Ash formula, phosphonate 0.3 wt-%, use solution at 120° F., time 40 min",91.03%
same,Relative Amylase Enzyme Activity,"All Ash formula, phosphonate 0.3 wt-%, use solution at 120° F., time 60 min",86.91%
same,Relative Amylase Enzyme Activity,"All Ash formula, phosphonate 0.3 wt-%, use solution at 120° F., time 90 min",87.68%
same,Relative Amylase Enzyme Activity,"All Ash formula, phosphonate 0.3 wt-%, use solution at 120° F., time 120 min",80.93%
same,Relative Amylase Enzyme Activity,"All Ash formula, phosphonate 0.3 wt-%, use solution at 120° F., time 150 min",83.80%
same,Relative Amylase Enzyme Activity,"All Ash formula, phosphonate 0.3 wt-%, use solution at 120° F., time 180 min",80.91%
same,Relative Amylase Enzyme Activity,"All Ash formula, phosphonate 0.3 wt-%, use solution at 120° F., time 210 min",84.34%
same,Relative Amylase Enzyme Activity,"All Ash formula, phosphonate 0.3 wt-%, use solution at 120° F., time 240 min",83.21%
same,amylase stability in all ash formula,"all ash formula, versus same composition with PBTC or HEDP without amine(s), FIG. 4D",more stable
same,Relative Amylase Enzyme Activity,"base formula, phosphonate 0.3 wt-%, use solution at 120° F., time 0 min",100.00%
same,Relative Amylase Enzyme Activity,"base formula, phosphonate 0.3 wt-%, use solution at 120° F., time 5 min",89.47%
same,Relative Amylase Enzyme Activity,"base formula, phosphonate 0.3 wt-%, use solution at 120° F., time 10 min",82.94%
same,Relative Amylase Enzyme Activity,"base formula, phosphonate 0.3 wt-%, use solution at 120° F., time 20 min",79.67%
same,Relative Amylase Enzyme Activity,"base formula, phosphonate 0.3 wt-%, use solution at 120° F., time 40 min",90.79%
same,Relative Amylase Enzyme Activity,"base formula, phosphonate 0.3 wt-%, use solution at 120° F., time 60 min",89.94%
same,Relative Amylase Enzyme Activity,"base formula, phosphonate 0.3 wt-%, use solution at 120° F., time 90 min",94.47%
same,Relative Amylase Enzyme Activity,"base formula, phosphonate 0.3 wt-%, use solution at 120° F., time 120 min",95.08%
same,Relative Amylase Enzyme Activity,"base formula, phosphonate 0.3 wt-%, use solution at 120° F., time 150 min",94.00%
same,Relative Amylase Enzyme Activity,"base formula, phosphonate 0.3 wt-%, use solution at 120° F., time 180 min",90.87%
same,Relative Amylase Enzyme Activity,"base formula, phosphonate 0.3 wt-%, use solution at 120° F., time 210 min",94.61%
same,Relative Amylase Enzyme Activity,"base formula, phosphonate 0.3 wt-%, use solution at 120° F., time 240 min",96.54%
same,Relative Amylase Enzyme Activity,"base formula, phosphonate 0.6 wt-%, use solution at 120º F., time 0 min",100.00%
same,Relative Amylase Enzyme Activity,"base formula, phosphonate 0.6 wt-%, use solution at 120º F., time 5 min",87.10%
same,Relative Amylase Enzyme Activity,"base formula, phosphonate 0.6 wt-%, use solution at 120º F., time 10 min",92.19%
same,Relative Amylase Enzyme Activity,"base formula, phosphonate 0.6 wt-%, use solution at 120º F., time 20 min",80.12%
same,Relative Amylase Enzyme Activity,"base formula, phosphonate 0.6 wt-%, use solution at 120º F., time 40 min",77.64%
same,Relative Amylase Enzyme Activity,"base formula, phosphonate 0.6 wt-%, use solution at 120º F., time 60 min",91.13%
same,Relative Amylase Enzyme Activity,"base formula, phosphonate 0.6 wt-%, use solution at 120º F., time 90 min",92.19%
same,Relative Amylase Enzyme Activity,"base formula, phosphonate 0.6 wt-%, use solution at 120º F., time 120 min",93.02%
same,Relative Amylase Enzyme Activity,"base formula, phosphonate 0.6 wt-%, use solution at 120º F., time 150 min",101.54%
same,Relative Amylase Enzyme Activity,"base formula, phosphonate 0.6 wt-%, use solution at 120º F., time 180 min",80.83%
same,Relative Amylase Enzyme Activity,"base formula, phosphonate 0.6 wt-%, use solution at 120º F., time 210 min",92.78%
same,Relative Amylase Enzyme Activity,"base formula, phosphonate 0.6 wt-%, use solution at 120º F., time 240 min",86.75%
same,Relative Amylase Enzyme Activity,"base formula, phosphonate at 0.1% elemental phosphorus level, use solution at 120º F., time 0 min",82.19%
same,Relative Amylase Enzyme Activity,"base formula, phosphonate at 0.1% elemental phosphorus level, use solution at 120º F., time 5 min",100.00%
same,Relative Amylase Enzyme Activity,"base formula, phosphonate at 0.1% elemental phosphorus level, use solution at 120º F., time 10 min",107.32%
same,Relative Amylase Enzyme Activity,"base formula, phosphonate at 0.1% elemental phosphorus level, use solution at 120º F., time 20 min",106.35%
same,Relative Amylase Enzyme Activity,"base formula, phosphonate at 0.1% elemental phosphorus level, use solution at 120º F., time 40 min",100.35%
same,Relative Amylase Enzyme Activity,"base formula, phosphonate at 0.1% elemental phosphorus level, use solution at 120º F., time 60 min",106.09%
same,Relative Amylase Enzyme Activity,"base formula, phosphonate at 0.1% elemental phosphorus level, use solution at 120º F., time 90 min",101.79%
same,Relative Amylase Enzyme Activity,"base formula, phosphonate at 0.1% elemental phosphorus level, use solution at 120º F., time 120 min",104.38%
same,Relative Amylase Enzyme Activity,"base formula, phosphonate at 0.1% elemental phosphorus level, use solution at 120º F., time 150 min",101.75%
same,Relative Amylase Enzyme Activity,"base formula, phosphonate at 0.1% elemental phosphorus level, use solution at 120º F., time 180 min",103.89%
same,Relative Amylase Enzyme Activity,"base formula, phosphonate at 0.1% elemental phosphorus level, use solution at 120º F., time 210 min",100.38%
same,Relative Amylase Enzyme Activity,"base formula, phosphonate at 0.1% elemental phosphorus level, use solution at 120º F., time 240 min",107.10%
